Measured values reported in patent publication US20260061084A1, “FIBROBLAST ACTIVATION PROTEIN (FAP) INHIBITORS, FAP CONJUGATES, AND DIAGNOSTIC AND THERAPEUTIC USES THEREOF” (Nuclidium AG, priority 2022, published 2026).

Key:
[1] = system: HT-1080.hFAP (FAP-positive) cells; assay: In vitro cellular uptake (cell surface-bound and internalized fractions); type: cell-based, human; details: 37° C., specific uptake (HT-1080.wt subtracted)
Method: The cellular uptake was studied in vitro using intact cells seeded in 6-well plates overnight. […] At each investigated time point, the medium containing the unbound (free) radiotracer was removed, followed by two washing steps with ice-cold phosphate-buffered saline. The cells were then treated 2×5 min with ice-cold glycine solution (0.05 M, pH 2.8) to detach the cell surface-bound radiotracer (acid released). Afterwards, the cells containing the internalized radiotracer were detached with 1 M NaOH at 37° C. and collected for measurement. The amount of specific cell surface-bound and internalized radiotracer is expressed as percentage of the total applied activity, after subtracting the non-specific values.
The cells were then preconditioned in 360 μL of assay medium (MEM medium without supplements) at 37° C. for 60 min. 40 μL of a 2 nM solution of ^61Cu-labeled radioligand was added and the cells were incubated at 37° C. The cellular uptake was interrupted at different time points (15 min, 1 hour and 4 hours), by washing twice with ice-cold PBS. Cell surface-bound radioligand was obtained by washing cells twice with ice-cold glycine buffer (pH 2.8), followed by a collection of the internalized fraction with 1 M NaOH. The activity in each fraction was measured in a […] (Cobra II).

[2] = system: HT-1080.hFAP tumor-bearing mice; assay: Biodistribution studies in xenografted mice; type: in vivo; details: for Biodistribution: Spleen / Biodistribution: Heart / Biodistribution: Liver / Biodistribution: Lung / Biodistribution: Stomach / Biodistribution: HT-1080.wt / Biodistribution: HT-1080.hFAP / Biodistribution: Intestine / Biodistribution: Muscle / Biodistribution: Adrenal / Biodistribution: Blood / Biodistribution: Kidneys / Biodistribution: Pancreas: i.v.; for Biodistribution: HT-1080.wt: FAP-negative tumor; for Biodistribution: HT-1080.hFAP: FAP-positive tumor; for Accumulation in FAP-positive (HT-1080.hFAP) tumor and murine-FAP-positive tissues, such as the bone marrow (bones): xenografted mice, 1 h and 4 h p.i.
Method: The tumors were allowed to grow to an average volume of 100-200 mm^3.
Biodistribution Studies: The xenografted mice were randomized (n=5 per group) and injected intravenously via the tail vein with the ^61Cu-labeled radioligands (100 μL, […], 0.8-1MBq). Mice were euthanized 1 h and 4 h p.i. by CO2 asphyxiation. Organs of interest and blood were collected, rinsed of excess blood, blotted dry, weighed, and counted in a […]. The samples were counted against a suitably diluted aliquot of the injected solution as the standard and the results are expressed as the percentage of the injected activity per gram of tissue (% I.A./g) ±SD.

[3] = system: Mice bearing FAP-positive and FAP-negative xenografts; assay: PET/CT imaging: remaining PET activity in the mouse body; type: in vivo
Method: The mice were euthanized by CO2 at 4 hours p.i., and static PET scans were acquired for 30 min.
PET/CT images were acquired using β-CUBE PET scanner system (Molecubes, Gent, Belgium), with a spatial resolution of 0.85 mm and an axial field-of-view of 13 cm. Dynamic PET scans were acquired for 60 min. All PET scans were decay corrected and reconstructed into a 192×192×384 matrix by an ordered subsets maximization expectation (OSEM) algorithm using 30 iterations, a voxel size of 400×400×400 μm a 15 min per frame. CT data was used to apply attenuation correction on the PET data. The CT was imaged supine, head first, using the NanoSPECT/CTTM scanner (Bioscan Inc.). Topograms and helical CT scans of the whole mouse were first acquired using the following parameters: X-ray tube current: 177 μA, X-ray tube voltage 45 kVp, 90 seconds and 180 frames per rotation, pitch 1. CT images were reconstructed using CTReco (version r1.146), with a standard filtered back projection algorithm (exact cone beam) and post-filtered (RamLak, 100% frequency cut-off), resulting in a pixel size of 0.2 mm. Co-registered PET/CT images were visualized using maximum intensity projection (MIP) with VivoQuant software (version 4.0).

| Structure (SMILES) | Cell surface fraction ([1]; 15 min) | Internalized fraction ([1]; 30 min) | Cell surface fraction ([1]; 60 min) | Internalized fraction ([1]; 60 min) | Cell surface fraction ([1]; 240 min) | Internalized fraction ([1]; 240 min) | Biodistribution: Spleen ([2]; 1 hour p.i.) [% I.A./g] | Biodistribution: Heart ([2]; 4 hours p.i.) [% I.A./g] | Biodistribution: Liver ([2]; 4 hours p.i.) [% I.A./g] | Biodistribution: Lung ([2]; 4 hours p.i.) [% I.A./g] | Biodistribution: Spleen ([2]; 4 hours p.i.) [% I.A./g] | Biodistribution: Stomach ([2]; 4 hours p.i.) [% I.A./g] | Biodistribution: HT-1080.wt ([2]; 1 hour p.i.) [% I.A./g] | Biodistribution: HT-1080.wt ([2]; 4 hours p.i.) [% I.A./g] | Biodistribution: HT-1080.hFAP ([2]; 1 hour p.i.) [% I.A./g] | Biodistribution: HT-1080.hFAP ([2]; 4 hours p.i.) [% I.A./g] | Accumulation in FAP-positive (HT-1080.hFAP) tumor and murine-FAP-positive tissues, such as the bone marrow (bones) [2] | Biodistribution: Heart ([2]; 1 hour p.i.) [% I.A./g] | Biodistribution: Intestine ([2]; 1 hour p.i.) [% I.A./g] | Biodistribution: Liver ([2]; 1 hour p.i.) [% I.A./g] | also measured |
| --- | --- | --- | --- | --- | --- | --- | --- | --- | --- | --- | --- | --- | --- | --- | --- | --- | --- | --- | --- | --- | --- |
| N#CC1CC(F)(F)CN1C(=O)CNC(=O)c1ccnc2ccc(NC(=O)CCC(=O)NCCNC(=O)CCC(C(=O)O)N3CCN(CC(=O)[O-])CCN(CC(=O)[O-])CC3)cc12.[61Cu+2] (centres unmarked) [[^61Cu]Cu-NODAGA-1] | 1.2 ± 0.3 % of the applied activity | 26.2 ± 3.5 % of the applied activity | 1.4 ± 0.3 % of the applied activity | 29.9 ± 1.8 % of the applied activity | 1.3 ± 0.2 % of the applied activity | 29.3 ± 1.8 % of the applied activity | 0.8 ± 0.1 | 0.7 ± 0.1 | 1.0 ± 0.2 | 0.8 ± 0.2 | 0.5 ± 0.1 | 0.7 ± 0.1 | 4.5 ± 0.6 | 2.1 ± 0.5 | 12.6 ± 1.5 | 7.1 ± 3.0 | high accumulation | – | – | – | Retention in the body (remaining PET activity 4 h p.i.), in words [3]: highest retention in the body |
| CN(C(=O)CCC(=O)NCCNC(=O)CCC(C(=O)O)N1CCN(CC(=O)[O-])CCN(CC(=O)[O-])CC1)c1ccc2nccc(C(=O)NCC(=O)N3CC(F)(F)CC3C#N)c2c1.[61Cu+2] (centres unmarked) [[^61Cu]Cu-NODAGA-2] | 1.2 ± 0.6 % of the applied activity | 20.7 ± 5.5 % of the applied activity | 1.4 ± 0.5 % of the applied activity | 27.0 ± 6.9 % of the applied activity | 1.3 ± 0.5 % of the applied activity | 28.3 ± 7.5 % of the applied activity | 0.4 ± 0.1 | 0.3 ± 0.0 | 0.6 ± 0.1 | 0.4 ± 0.0 | 0.2 ± 0.0 | 0.3 ± 0.1 | 1.4 ± 0.2 | 0.9 ± 0.1 | 3.5 ± 1.0 | 4.0 ± 0.6 | high accumulation | 0.6 ± 0.1 | 0.5 ± 0.1 | 0.6 ± 0.1 | Biodistribution: Lung ([2]; 1 hour p.i.): 0.8 ± 0.1 % I.A./g; Biodistribution: Muscle ([2]; 1 hour p.i.): 0.9 ± 0.1 % I.A./g; Biodistribution: Stomach ([2]; 1 hour p.i.): 0.6 ± 0.1 % I.A./g; Biodistribution: Adrenal ([2]; 4 hours p.i.): 0.3 ± 0.1 % I.A./g; Biodistribution: Blood ([2]; 4 hours p.i.): 0.5 ± 0.1 % I.A./g; Biodistribution: Intestine ([2]; 4 hours p.i.): 0.3 ± 0.1 % I.A./g; Biodistribution: Kidneys ([2]; 4 hours p.i.): 1.0 ± 0.1 % I.A./g; Biodistribution: Muscle ([2]; 4 hours p.i.): 0.4 ± 0.1 % I.A./g; Biodistribution: Pancreas ([2]; 4 hours p.i.): 0.5 ± 0.0 % I.A./g |
| N#CC1CC(F)(F)CN1C(=O)CNC(=O)c1ccnc2ccc(NC(=O)CCC(=O)N3CCN(C(=O)CCC(C(=O)O)N4CCN(CC(=O)[O-])CCN(CC(=O)[O-])CC4)CC3)cc12.[61Cu+2] (centres unmarked) [[^61Cu]Cu-NODAGA-3] | 0.9 ± 0.3 % of the applied activity | 26.6 ± 4.9 % of the applied activity | 1.2 ± 0.4 % of the applied activity | 36.9 ± 5.3 % of the applied activity | 1.4 ± 0.4 % of the applied activity | 39.4 ± 4.8 % of the applied activity | 0.5 ± 0.1 | 0.5 ± 0.0 | 0.7 ± 0.1 | 0.7 ± 0.1 | 0.3 ± 0.0 | 0.5 ± 0.0 | 4.0 ± 2.2 | 1.8 ± 0.3 | 7.9 ± 0.9 | 6.4 ± 2.0 | high accumulation | 0.7 ± 0.1 | 0.8 ± 0.2 | 0.9 ± 0.1 | Biodistribution: Stomach ([2]; 1 hour p.i.): 0.8 ± 0.1 % I.A./g; Biodistribution: Blood ([2]; 4 hours p.i.): 0.9 ± 0.0 % I.A./g; Biodistribution: Intestine ([2]; 4 hours p.i.): 0.4 ± 0.1 % I.A./g; Biodistribution: Kidneys ([2]; 4 hours p.i.): 1.0 ± 0.2 % I.A./g; Biodistribution: Pancreas ([2]; 4 hours p.i.): 0.9 ± 0.0 % I.A./g |
| CN(C(=O)CCC(=O)N1CCN(C(=O)CCC(C(=O)O)N2CCN(CC(=O)[O-])CCN(CC(=O)[O-])CC2)CC1)c1ccc2nccc(C(=O)NCC(=O)N3CC(F)(F)CC3C#N)c2c1.[61Cu+2] (centres unmarked) [[^61Cu]Cu-NODAGA-4] | 1.0 ± 0.7 % of the applied activity | 22.2 ± 7.4 % of the applied activity | 1.4 ± 0.4 % of the applied activity | 22.2 ± 5.1 % of the applied activity | 0.9 ± 0.6 % of the applied activity | 17.4 ± 4.4 % of the applied activity | 0.4 ± 0.0 | 0.2 ± 0.0 | 0.4 ± 0.0 | 0.3 ± 0.0 | 0.2 ± 0.0 | 0.2 ± 0.0 | 1.7 ± 0.2 | 0.6 ± 0.0 | 7.4 ± 1.6 | 3.0 ± 0.8 | high accumulation | 0.6 ± 0.0 | 0.5 ± 0.2 | 0.6 ± 0.1 | Biodistribution: Lung ([2]; 1 hour p.i.): 0.9 ± 0.1 % I.A./g; Biodistribution: Muscle ([2]; 1 hour p.i.): 0.8 ± 0.2 % I.A./g; Biodistribution: Stomach ([2]; 1 hour p.i.): 0.5 ± 0.0 % I.A./g; Biodistribution: Adrenal ([2]; 4 hours p.i.): 0.5 ± 0.1 % I.A./g; Biodistribution: Blood ([2]; 4 hours p.i.): 0.4 ± 0.1 % I.A./g; Biodistribution: Intestine ([2]; 4 hours p.i.): 0.3 ± 0.1 % I.A./g; Biodistribution: Muscle ([2]; 4 hours p.i.): 0.4 ± 0.1 % I.A./g; Biodistribution: Pancreas ([2]; 4 hours p.i.): 0.4 ± 0.1 % I.A./g; Retention in the body (remaining PET activity 4 h p.i.), in words [3]: lowest value |
